Laboratory results published in the NIST ThermoML archive (doi:10.1016/j.jct.2006.04.009).
Numbers after ± are expanded uncertainties.

Details: Liquid

Row | vapor or sublimation pressure (343.15 K) [kPa] | vapor or sublimation pressure (353.15 K) [kPa] | vapor or sublimation pressure (363.15 K) [kPa] | Structure (SMILES) | vapor or sublimation pressure (313.15 K) [kPa] | vapor or sublimation pressure (323.15 K) [kPa] | vapor or sublimation pressure (333.15 K) [kPa]
1 | – | – | – | FC(F)C(F)(F)F [pentafluoroethane] | 2009 ± 24 | 2537 ± 30 | 3170 ± 37
2 | 1817 ± 21 | 2251 ± 26 | 2738 ± 32 | COC [dimethyl ether] | 887 ± 10 | 1147 ± 13 | 1451 ± 17
